ChEMBL document CHEMBL1125941, “(2,3)--methylenepenicillanic acid sulfone: synthesis and -lactamase inhibiting properties” (Bioorg Med Chem Lett, 1991)

What was measured:
Type in all cases: functional, organism-based
[1] = tested on: Escherichia coli; test: Compound was evaluated for the inhibition of Escherichia coli TEM-1 enzyme
[2] = tested on: Staphylococcus aureus; test: Compound was evaluated for the inhibition of Staphylococcus aureus penicillinase (PC1)
[3] = tested on: Enterobacter cloacae; test: Compound was evaluated for the inhibition of Enterobacter cloacae P99 cephalosporinase

SMILES	IC50 [1] [µM]	IC50 [2] [µM]	IC50 [3] [µM]
C[C@]12C[C@@]1(C(=O)O)N1C(=O)C[C@H]1S2(=O)=O	2.5	14	322
C[C@@]12C[C@]1(C(=O)O)N1C(=O)C[C@H]1S2(=O)=O	406	548	12
CC1(C)[C@H](C(=O)O)N2C(=O)C[C@H]2S1(=O)=O [SULBACTAM]	1.9	6.8	20
